Test results: paper PMC2746553 (Biochemistry, 2009)

Key:
[1] = biological target: T1, 15-hLO-2 (human epithelial 15-lipoxygenase-2) (Homo sapiens, UniProt O15296); assay: competitive substrate capture, solvent isotope effect and steady-state kinetics; format: biochemical
T1 sequence (O15296 1-676): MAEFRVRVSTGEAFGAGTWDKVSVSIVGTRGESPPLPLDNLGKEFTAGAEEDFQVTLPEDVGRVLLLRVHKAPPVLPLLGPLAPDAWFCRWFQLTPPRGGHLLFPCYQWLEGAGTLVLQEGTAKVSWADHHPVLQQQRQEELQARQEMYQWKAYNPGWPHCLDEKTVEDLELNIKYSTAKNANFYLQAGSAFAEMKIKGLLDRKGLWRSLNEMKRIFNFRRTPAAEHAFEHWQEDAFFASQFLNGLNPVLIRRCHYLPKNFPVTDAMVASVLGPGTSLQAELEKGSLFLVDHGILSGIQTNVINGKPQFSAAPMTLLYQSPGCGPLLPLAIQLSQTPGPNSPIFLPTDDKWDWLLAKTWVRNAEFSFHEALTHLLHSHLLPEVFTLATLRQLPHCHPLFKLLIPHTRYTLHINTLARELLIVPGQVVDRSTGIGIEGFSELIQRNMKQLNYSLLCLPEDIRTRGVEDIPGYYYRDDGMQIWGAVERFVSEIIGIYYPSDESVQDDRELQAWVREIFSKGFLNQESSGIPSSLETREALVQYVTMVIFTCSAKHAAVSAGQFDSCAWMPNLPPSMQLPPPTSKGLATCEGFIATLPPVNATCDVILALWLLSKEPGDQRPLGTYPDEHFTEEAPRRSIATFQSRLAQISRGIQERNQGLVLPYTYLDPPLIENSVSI

[2] = biological target: T1, 15-hLO-2 (human epithelial 15-lipoxygenase-2)
[3] = biological target: T1, 15-hLO-2 (human epithelial 15-lipoxygenase-2); assay: competitive kinetic isotope effect and competitive substrate capture; format: biochemical
[4] = biological target: T1, 15-hLO-2 (human epithelial 15-lipoxygenase-2); assay: steady-state inhibition kinetics with AA as substrate; format: biochemical

CCCCC[C@H](O)/C=C/C=C\CCCCCCCC(=O)O [13-HODE, 13-(S)-hydroxyoctadecadienoic acid]
Kd [1]: ~5 nM

CCCCC/C=C\C/C=C\C/C=C\C/C=C\CCCC(=O)O [AA, arachidonic acid]
steady-state kinetics (234 nm), kcat/KM at pH 7.5 [2]: 0.15 ± 0.02 μM^-1 s^-1

CCCCC/C=C\C/C=C\CCCCCCCC(=O)O [LA, linoleic acid]
competitive kinetic isotope effect and competitive substrate capture (HPLC) [3]: 45 ± 3

CCCCC/C=C\C/C=C\CCCCCCCC(=O)O [d31-LA]
Ki [4]: 17 ± 3 µM
